Patent US20240277798A1, “CYCLOSPORINE COMPOSITIONS AND METHODS OF USE” (Bacainn Biotherapeutics, Ltd., priority 2021, published 2024)
Several values for one entry are separate records, joined by “and”; a condition that tells them apart may be missing. Equal entries are not always repeated.

Assays:
[1] = Rat PK, plasma concentrations after oral dosing; type: in vivo, Sprague-Dawley rats
[2] = Feces stability (rat feces homogenate); type: in vitro ADME, Sprague-Dawley rat; conditions: 10 μM, 37° C., 24 hours, predicted
Method: Feces stability. Immediately prior to the study, male Sprague-Dawley rat feces were collected overnight over a mix of dry and wet ice. Feces were then homogenized in phosphate buffer at pH 6.5 and filtered to remove particles. BT090 ([…]) was incubated in duplicate at 37° C. for a total of 24 hours in the freshly prepared rat feces homogenate. At selected time points (0.5, 2, 6 and 24 hours), a 25 μL aliquot was taken from the incubation mixtures and quenched with 225 μL of acetonitrile containing the internal standards (IS). Samples were then centrifuged to pellet the precipitated proteins and the supernatants were diluted 5-fold. The 0 hour samples were prepared in pre-quenched feces homogenate towards the end of the incubation period. All quenched samples were then submitted to bioanalysis for LC-MS/MS quantification.
Bioanalysis. BT090 samples were analyzed by LC-MS/MS using a Thermo Accela UPLC and a Thermo Q-Exactive mass spectrometer. The [M+H]+ adducts of the compounds and internal standards were monitored using positive mode electrospray ionization in exact mass mode. […]
Feces stability. […] All quenched samples are then submitted to bioanalysis for LC-MS/MS quantification.
Bioanalysis. […] The [M+H]+ adducts of the compounds and internal standards are monitored using positive mode electrospray ionization in exact mass mode. […]

FPR1 = biological target: T1, FPR1 (Homo sapiens, UniProt P21462); experiment: Inhibition of FPR1 measured as inhibition of fMLP-induced neutrophil transmigration across T84 monolayer; type: cell-based; conditions: FIG. 3B
T1 construct: endogenous in cells; host or cells: freshly isolated human neutrophils (PMNs), migrating across a T84 epithelial monolayer
T1 sequence (P21462 1-350): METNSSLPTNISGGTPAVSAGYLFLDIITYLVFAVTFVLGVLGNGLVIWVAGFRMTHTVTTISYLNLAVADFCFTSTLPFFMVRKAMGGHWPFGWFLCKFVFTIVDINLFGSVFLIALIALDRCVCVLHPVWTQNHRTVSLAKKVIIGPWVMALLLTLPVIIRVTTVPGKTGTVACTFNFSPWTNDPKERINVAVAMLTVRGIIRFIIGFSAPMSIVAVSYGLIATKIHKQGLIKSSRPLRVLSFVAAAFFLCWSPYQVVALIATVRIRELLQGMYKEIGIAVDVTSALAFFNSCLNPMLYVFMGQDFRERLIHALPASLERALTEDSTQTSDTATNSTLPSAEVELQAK
Method: T84 colorectal cancer cells were grown to confluence on the bottom side of 12 well polycarbonate membrane inserts of a 24 well Transwell® plate. The confluent growth of these epithelial cells results in physiologically-relevant apical (luminal) and basolateral surfaces in the transwells. Freshly isolated and prepared human neutrophils were pretreated in compound (BT051 or cyclosporine A) for 1 hour on ice.
BT051 or cyclosporine A was added to the apical surface of the monolayer. The potent neutrophil chemoattractant, N-formyl-methionyl-leucyl-phenylalanine (fMLP) (100 nM), which activates neutrophil migration via its interaction with the FPR1 protein on neutrophils, was also added to the apical side of the monolayer. The compound-treated neutrophils were then added to the basolateral side and allowed to transmigrate through the monolayer for 2 hours. The number of neutrophils migrated to the apical chamber (due to the fMLP gradient) was then assayed by determination of myeloperoxidase activity (a neutrophil biomarker). Inhibition of transmigration is indicated by lower MPO activity in the apical chamber.
T84 colorectal cancer cells are grown to confluence on the bottom side of 12 well polycarbonate membrane inserts of a 24 well Transwell® plate. The confluent growth of these epithelial cells results in physiologically-relevant apical (luminal) and basolateral surfaces in the transwells. […]

[3] = BT070 10 mg/kg orally, rat, individual animals, 10 mg/kg
[4] = BT070 10 mg/kg orally, rat, mean

Mean plasma concentration ([1]; BT070 10 mg/kg orally, rat, 0.5 h, mean): 3588.6 ng/mL
Mean plasma concentration ([1]; BT070 10 mg/kg orally, rat, 1 h, mean): 2301.5 ng/mL
Mean plasma concentration ([1]; BT070 10 mg/kg orally, rat, 2 h, mean): 1522.8 ng/mL
Mean plasma concentration ([1]; BT070 10 mg/kg orally, rat, 4 h, mean): 829.6 ng/mL
Mean plasma concentration ([1]; BT070 10 mg/kg orally, rat, 6 h, mean): 488.3 ng/mL
Mean plasma concentration ([1]; BT070 10 mg/kg orally, rat, 8 h, mean): 293.9 ng/mL
Mean plasma concentration ([1]; BT070 10 mg/kg orally, rat, 24 h, mean): 101.2 ng/mL
% Extrapolation [1, 3]: 0.3% and 38.42% and 2.46%
tmax [1, 3]: 0.50 h (2×) and 2.00 h
% Extrapolation, Mean [1, 4]: 13.7%
AUCinf, Mean [1, 4]: 14735.7 ng·h/mL
AUClast, Mean [1, 4]: 12202.9 ng·h/mL
CL_F, Mean [1, 4]: 13.5 mL/min/kg
Cmax, Mean [1, 4]: 3711.2 ng/mL
M.R.T. po, Mean [1, 4]: 10.8 h
tmax, Mean [1, 4]: 1.0 h
Mean plasma concentration ([1]; BT070 as breakdown product after BT051 10 mg/kg orally, rat, 0.5 h, mean): 3.3 ng/mL
Cmax ([1]; BT070 as breakdown product after BT051 10 mg/kg orally, rat, individual animals): 3.3 ng/mL
Cmax, Mean ([1]; BT070 as breakdown product after BT051 10 mg/kg orally, rat, mean): 3.3 ng/mL
oral bioavailability of the breakdown product ([1]; BT070 following oral administration of BT051 in rats at 10 mg/kg, result in words): not orally bioavailable
stability in fresh rat fecal homogenate [2]: stable
inhibition of PMN transmigration/activation (FPR1; concentration not given): approximately 50%
fMLP-mediated PMN transmigration/activation (FPR1; result in words): inhibit
SMILES: CC[C@@H]1NC(=O)[C@H]([C@H](O)[C@H](C)CCCCCC(=O)O)N(C)C(=O)[C@H](C(C)C)N(C)C(=O)[C@H](CC(C)C)N(C)C(=O)[C@H](CC(C)C)N(C)C(=O)[C@@H](C)NC(=O)[C@H](C)NC(=O)[C@H](CC(C)C)N(C)C(=O)[C@H](C(C)C)NC(=O)[C@H](CC(C)C)N(C)C(=O)CN(C)C1=O [BT070]
plasma concentration ([1]; BT070 10 mg/kg orally, rat, 0.5 h, individual animals, 10 mg/kg): 7472.8 ng/mL and 746.7 ng/mL and 2546.3 ng/mL
plasma concentration ([1]; BT070 10 mg/kg orally, rat, 1 h, individual animals, 10 mg/kg): 4382.8 ng/mL and 725.2 ng/mL and 1796.5 ng/mL
plasma concentration ([1]; BT070 10 mg/kg orally, rat, 2 h, individual animals, 10 mg/kg): 2238.3 ng/mL and 1114.4 ng/mL and 1215.5 ng/mL
plasma concentration ([1]; BT070 10 mg/kg orally, rat, 4 h, individual animals, 10 mg/kg): 1178.8 ng/mL and 861.5 ng/mL and 448.5 ng/mL
plasma concentration ([1]; BT070 10 mg/kg orally, rat, 6 h, individual animals, 10 mg/kg): 641.5 ng/mL and 543.6 ng/mL and 280.0 ng/mL
plasma concentration ([1]; BT070 10 mg/kg orally, rat, 8 h, individual animals, 10 mg/kg): 312.1 ng/mL and 451.6 ng/mL and 118.1 ng/mL
plasma concentration ([1]; BT070 10 mg/kg orally, rat, 24 h, individual animals, 10 mg/kg): 12.0 ng/mL and 268.9 ng/mL and 22.8 ng/mL
AUCinf [1, 3]: 17616.8 ng/mL*h and 19158.4* ng/mL*h and 7432.0 ng/mL*h
AUClast [1, 3]: 17560.9 ng·h/mL and 11798.3 ng·h/mL and 7249.5 ng·h/mL
CL_F [1, 3]: 9.5 mL/min/kg and 8.7* mL/min/kg and 22.43 mL/min/kg
Cmax [1, 3]: 7472.8 ng/mL and 1114.4 ng/mL and 2546.3 ng/mL
plasma concentration ([1]; BT070 as breakdown product after BT051 10 mg/kg orally, rat, 0.5 h, individual animals): 3.3 ng/mL and NQ (Not quantifiable. No peak or below limit of quantification (LOQ = 2.5 ng/mL)) (4×)
plasma concentration ([1]; BT070 as breakdown product after BT051 10 mg/kg orally, rat, 1 h, individual animals): NQ (Not quantifiable. No peak or below limit of quantification (LOQ = 2.5 ng/mL))
plasma concentration ([1]; BT070 as breakdown product after BT051 10 mg/kg orally, rat, 2 h, individual animals): NQ (Not quantifiable. No peak or below limit of quantification (LOQ = 2.5 ng/mL))
plasma concentration ([1]; BT070 as breakdown product after BT051 10 mg/kg orally, rat, 4 h, individual animals): NQ (Not quantifiable. No peak or below limit of quantification (LOQ = 2.5 ng/mL))
plasma concentration ([1]; BT070 as breakdown product after BT051 10 mg/kg orally, rat, 6 h, individual animals): NQ (Not quantifiable. No peak or below limit of quantification (LOQ = 2.5 ng/mL))
plasma concentration ([1]; BT070 as breakdown product after BT051 10 mg/kg orally, rat, 8 h, individual animals): NQ (Not quantifiable. No peak or below limit of quantification (LOQ = 2.5 ng/mL))
plasma concentration ([1]; BT070 as breakdown product after BT051 10 mg/kg orally, rat, 24 h, individual animals): NQ (Not quantifiable. No peak or below limit of quantification (LOQ = 2.5 ng/mL))
detectability in plasma ([1]; rats, 10 mg/kg orally, result in words): present in the plasma in all subject rats from 15 minutes to 24 hours
